In ChEMBL document CHEMBL1140116, “Potent s-cis-locked bithiazole correctors of DeltaF508 cystic fibrosis transmembrane conductance regulator cellular processing for cystic fibrosis therapy” (J Med Chem, 2008) one finds Activity data, which are given here for six molecules.

SMILES strings stand for the structures. Activity calls are given as the source filed them. The calls are words filed in the database; no cut-off is given here.

This assay deals with Cystic fibrosis transmembrane conductance regulator (Homo sapiens) (UniProt P13569). In words: Corrector activity at human CFTR deltaF508 mutant expressed in FRT cells assessed as iodide influx at 25 uM. The class given is cell-based.
Sequence of Cystic fibrosis transmembrane conductance regulator (Homo sapiens) (P13569 whole entry, looked up): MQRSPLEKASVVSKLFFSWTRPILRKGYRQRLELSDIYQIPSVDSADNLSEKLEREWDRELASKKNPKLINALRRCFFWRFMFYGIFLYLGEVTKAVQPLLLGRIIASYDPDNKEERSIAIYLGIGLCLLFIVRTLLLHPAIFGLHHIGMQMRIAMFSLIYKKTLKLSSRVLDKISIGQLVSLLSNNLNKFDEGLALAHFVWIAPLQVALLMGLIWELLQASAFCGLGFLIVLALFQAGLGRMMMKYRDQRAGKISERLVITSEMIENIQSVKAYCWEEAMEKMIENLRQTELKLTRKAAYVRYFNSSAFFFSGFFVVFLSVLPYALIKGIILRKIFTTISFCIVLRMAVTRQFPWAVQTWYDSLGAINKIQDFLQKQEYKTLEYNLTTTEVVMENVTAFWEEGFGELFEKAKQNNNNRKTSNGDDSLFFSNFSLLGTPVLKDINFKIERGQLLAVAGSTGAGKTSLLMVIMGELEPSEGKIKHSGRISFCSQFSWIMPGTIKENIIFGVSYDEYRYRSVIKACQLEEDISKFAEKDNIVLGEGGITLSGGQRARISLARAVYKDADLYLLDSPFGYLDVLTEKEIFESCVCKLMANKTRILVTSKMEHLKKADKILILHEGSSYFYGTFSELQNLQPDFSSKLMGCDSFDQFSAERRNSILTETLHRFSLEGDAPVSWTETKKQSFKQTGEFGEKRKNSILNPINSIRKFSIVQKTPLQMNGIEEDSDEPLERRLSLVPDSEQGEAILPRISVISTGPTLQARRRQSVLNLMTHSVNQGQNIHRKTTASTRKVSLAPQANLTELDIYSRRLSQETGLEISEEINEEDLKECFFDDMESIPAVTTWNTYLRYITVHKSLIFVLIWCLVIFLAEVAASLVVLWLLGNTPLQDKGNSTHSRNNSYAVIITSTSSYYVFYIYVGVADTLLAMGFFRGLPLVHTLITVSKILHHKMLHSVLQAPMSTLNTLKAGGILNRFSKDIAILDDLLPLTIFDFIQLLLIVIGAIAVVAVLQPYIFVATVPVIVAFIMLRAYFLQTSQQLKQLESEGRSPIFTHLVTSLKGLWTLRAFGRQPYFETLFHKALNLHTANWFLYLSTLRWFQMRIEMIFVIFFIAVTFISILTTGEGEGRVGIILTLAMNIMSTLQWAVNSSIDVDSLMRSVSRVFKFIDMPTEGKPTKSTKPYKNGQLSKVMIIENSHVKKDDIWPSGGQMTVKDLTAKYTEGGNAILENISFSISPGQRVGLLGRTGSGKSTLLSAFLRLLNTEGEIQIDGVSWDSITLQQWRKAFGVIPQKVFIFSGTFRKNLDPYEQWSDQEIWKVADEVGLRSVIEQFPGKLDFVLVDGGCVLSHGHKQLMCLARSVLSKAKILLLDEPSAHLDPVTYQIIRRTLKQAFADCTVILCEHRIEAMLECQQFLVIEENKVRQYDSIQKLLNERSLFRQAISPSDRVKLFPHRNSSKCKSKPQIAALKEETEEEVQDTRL
With `COc1ccc(Cl)cc1Nc1nc(-c2cccc(NC(=O)C(C)(C)C)c2)c(C)s1`, the outcome was inactive.
With `COc1ccc(Cl)cc1Nc1nc(-c2cccc(NC(=O)C(C)(C)C)c2)cs1` the entry was “inactive”; with `COc1ccc(Cl)cc1Nc1nc2c(s1)CCCc1nc(NC(=O)C(C)(C)C)sc1-2`, “Active”.
In the case of `COc1ccc(Cl)cc1Nc1nc(-c2cnc(NC(=O)C(C)(C)C)s2)cs1` it was “Active”; in that of `COc1ccc(Cl)cc1Nc1nc(C)c(-c2csc(NC(=O)C(C)(C)C)n2)s1`, “inactive”.
For the molecule `COc1ccc(Cl)cc1Nc1nc(-c2sc(NC(=O)C(C)(C)C)nc2C)cs1`, the result was Active.
